Here are results for one molecule from ChEMBL document CHEMBL1149867, “Salinipyrones and pacificanones, mixed-precursor polyketides from the marine actinomycete Salinispora pacifica” (2008).

The assay has as its system Splenocyte. The assay can be described thus: Inhibition of IL5 production in mouse splenocyte model of allergic inflammation at 10 ug/ml. It is filed as functional.

Structures are written as SMILES.

Molecule `CC[C@@H](O)[C@@H](C)/C=C(C)/C=C/c1oc(=O)c(C)c(O)c1C` [SALINIPYRONE A] gave an inhibition at 10 µg/mL of 50%.
